We go through 20 molecules from patent publication US20050136444A1 (priority 2003, published 2005).

Data set [1] deals with 52° C. Water Tail Flick Test. Briefly: 52° C. Water Tail Flick Test, intrathecal administration. The format is in vivo, rat. The conditions noted are these: rats. On the procedure:
Rats were implanted with chronically indwelling intrathecal catheters (PE-10; 7.5 cm) allowing for the delivery of compounds to the lumbar spinal cord. As a positive control, rats were treated with various doses of morphine (3, 10 and 30 μg).
Rats were implanted with chronically indwelling intrathecal catheters (PE-10; 7.5 cm) allowing for the delivery of compounds to the lumbar spinal cord.
Rats were implanted with chronically indwelling intrathecal catheters (PE-10; 7.5 cm) allowing for the delivery of compounds to the lumbar spinal cord. In order to rule out the possibility that the lack of antinociception produced by NPFF was due to the degradation of the peptide we administered 1DME (a stable NPFF analog).
On the technique in general: In hot-plate and tail-flick tests a longer latency is read as antinociception.

The target of data set [2] is NPFF1 (Homo sapiens, UniProt Q9GZQ6). Put plainly: Receptor Selection and Amplification Technology (R-SAT) functional assay, NPFF1. The conditions noted are these: for EC50: NA = No activity detectable at the highest dose tested (20 μM), read-out: NPFF1 pEC50 (converted). More on the design: expressed in transfected cells; host or cells: NIH3T3. The format is cell-based. As for the experimental part:
(§1) Briefly, NIH3T3 cells were grown in 96 well tissue culture plates to 70-80% confluence. Cells were transfected for 16-20 h h with plasmid DNAs using Polyfect (Qiagen Inc.) as per manufacturer's protocols. R-SAT's were generally performed with 40 ng/well of receptor and 20 ng/well of β-galactosidase plasmid DNA. All receptor and G-protein constructs used were in the pSI-derived mammalian expression vector (Promega Inc) as described previously. […] For large-scale transfections, cells were transfected for 16-20 h, then trypsinized and frozen in DMSO. Frozen cells were later thawed, plated at ˜20,000 cells per well of a 96 half-area well plate that contained drug. With both methods, cells were then grown in a humidified atmosphere with 5% ambient CO2 for five days. Media was then removed from the plates and marker gene activity was measured by the addition of the β-galactosidase substrate o-nitrophenyl β-D-galactopyranoside (ONPG, in PBS with 0.5% NP-40). The resulting colorimetric reaction was measured in a spectrophotometric plate reader (Titertek Inc.) at 420 nm. All data were analyzed using the computer program XLFit (IDBSm).
(§2) R-SAT assay was conducted as set forth in […]

In data set [3] the test system is rats. Put plainly: Observed behaviors / side effects after systemic administration. The conditions noted are these: rats, i.p. The format is in vivo, rat. On the procedure: These behaviors typically precede “barrel-rolling” seizures.
These effects persisted between 15 and 20 minutes. These effects were not observed in rats that received doses less than 10 mg/kg.
These effects persisted between 15 and 20 minutes and were shown by both sham-operated and SNL rats. These effects were not observed in rats that received doses less than 10 mg/kg. [drawing 22]
However, these effects were more robust and of longer duration (60-90 min).
These effects persisted between 60 and 90 minutes and were shown by both sham-operated and SNL rats. These effects were not observed in rats that received doses less than 10 mg/kg. [drawing 23]
A model of neuropathic pain was created in rats by tight ligation of the L5 and L6 spinal nerves. […] Rats were then treated with various doses of dPQR (3, 10 and 30 mg/kg, i.p.) and paw withdrawal thresholds were tested across a period of 3 hours.
A model of neuropathic pain was created in rats by tight ligation of the L5 and L6 spinal nerves. […] Rats were then treated with various doses of Compound 3099 (1, 3 and 10 mg/kg, i.p.) and paw withdrawal thresholds were tested across a period of 3 hours.
In an attempt to increase the efficacy of Compound 3099 in the SNL model, we administered a dose of 30 mg/kg (i.p.) to SNL rats. […] Further, these behaviors were also transient, such that, by the end of the testing period these effects appeared to have resolved.

For data set [4], the target named is T1, NPFF2 (Homo sapiens, UniProt Q9Y5X5).
T1 construct: expressed in transfected cells; host or cells: NIH3T3
T1 sequence (Q9Y5X5 103-522): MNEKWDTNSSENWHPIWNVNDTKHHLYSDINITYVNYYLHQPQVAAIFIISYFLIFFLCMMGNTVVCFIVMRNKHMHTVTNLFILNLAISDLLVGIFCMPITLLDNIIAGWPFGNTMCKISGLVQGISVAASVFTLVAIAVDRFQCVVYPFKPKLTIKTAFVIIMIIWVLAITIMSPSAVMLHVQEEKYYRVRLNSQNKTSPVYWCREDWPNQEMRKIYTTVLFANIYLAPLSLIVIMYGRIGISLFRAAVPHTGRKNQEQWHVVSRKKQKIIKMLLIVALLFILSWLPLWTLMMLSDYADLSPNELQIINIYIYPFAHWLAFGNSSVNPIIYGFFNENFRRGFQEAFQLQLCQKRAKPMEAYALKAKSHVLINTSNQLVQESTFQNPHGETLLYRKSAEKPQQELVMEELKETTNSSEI
Briefly: Receptor Selection and Amplification Technology (R-SAT) functional assay, NPFF2. It counts as cell-based. To be noted: for EC50: NA = No activity detectable at the highest dose tested (20 μM), read-out: NPFF2 pEC50 (converted). As for the experimental part: as §1, §2

Data set [5] addresses T2, NPFF2b (Homo sapiens, UniProt Q9Y5X5).
T2 construct: expressed in transfected cells; host or cells: HEK-T
Briefly: cAMP assay in transiently transfected HEK-T cells, NPFF2. The conditions noted are these: HEK-T cell, read-out: NPFF2b % Efficacy Mean. The format is cell-based. On the procedure: An assay was established for measuring cAMP in transiently transfected cells that takes advantage of the fact that most cells that are transfected with one gene, can be simultaneously transfected with other genes. Thus, the NPFF1 and NPFF2 receptors were transfected along with a Gs-coupled receptor (EP2) at a ratio of 5:1.
This set up was routinely used for the transfection of HEK-T cells with NPFF1 and NPFF2 receptors. […] Cells were incubated for 15 minutes at 37° C. At the end of incubation, cells were lysed and the remainder of the assay performed as per DiscoveRx protocol.
Cells were incubated for another 15 minutes at 37° C. following which the cells were lysed and processed as per kit protocol.
A general note: Changes in cAMP serve as a functional read-out for many G protein-coupled receptors.

Data set [6] concerns Barrel Rotations. The conditions noted are these: 60 μg, reported by Panula et al. 1996; cited from earlier work.
The test system of data set [7] is Barrel Rotations. Put plainly: Barrel rotations after ICV administration of NPFF. It counts as in vivo, rat. To be noted: naive rats. An excerpt: Given that this is the only mention in the literature with respect to NPFF and barrel-rotation, we attempted to replicate this effect using naive rats implanted with ICV cannula.
Where [8] appears, read: R-SAT, Table 1, Efficacy is relative to endogenous ligand, read-out: NPFF1 % Efficacy.
Where [9] appears, read: R-SAT, Table 1, Efficacy is relative to endogenous ligand, read-out: NPFF2 % Efficacy.

pEC50: −log10 of the molar value. Structures can show the parent of a compound that is named as a salt. Where two headings read alike, the source gives them in different places.

Sequence of NPFF1 (Q9GZQ6 whole entry, species assumed): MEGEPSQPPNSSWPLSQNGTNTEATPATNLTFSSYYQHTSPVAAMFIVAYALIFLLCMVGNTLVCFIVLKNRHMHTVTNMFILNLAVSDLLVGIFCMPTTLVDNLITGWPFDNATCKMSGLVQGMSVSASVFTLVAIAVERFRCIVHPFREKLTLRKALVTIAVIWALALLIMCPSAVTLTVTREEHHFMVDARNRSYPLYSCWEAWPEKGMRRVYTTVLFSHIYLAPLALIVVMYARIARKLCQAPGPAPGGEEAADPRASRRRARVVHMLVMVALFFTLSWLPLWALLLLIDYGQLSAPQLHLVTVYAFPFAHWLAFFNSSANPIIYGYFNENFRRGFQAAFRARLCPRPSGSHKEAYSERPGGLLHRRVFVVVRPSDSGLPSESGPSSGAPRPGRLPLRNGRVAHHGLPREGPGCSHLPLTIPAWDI
T2 sequence (Q9Y5X5 103-522 limits assumed): as the sequence (Q9Y5X5 103-522) above

For the molecule `CN1CC[C@]23c4c5ccc(O)c4O[C@H]2[C@@H](O)C=C[C@H]3[C@H]1C5` [Morphine, morphine], the “A50, antinociception” value in data set [1] (95% CI) was 9.8 µg. For the same molecule, the “antinociception in 52° C. water tail flick test” value in data set [1] (morphine 3, 10, 30 μg, NPFF 100 μg, 1045 11.6 or 115.5 μg, 1DME 5.6, 55.6 or 556.0 μg) is “produced dose-related antinociception”.

Usually pEC50 stands for the EC50 on a negative log10 scale, so that one unit is a factor of ten. Lower therefore signals a large EC50. For the molecule `Cl.N=C(N)NN=Cc1ccc(Cl)c(Cl)c1` [Compound 1045.HCl, 1-(3,4-Dichlorobenzylideneamino)guanidine Hydrochloride], the Emax in data set [2] (R-SAT data, Table 2, multiple entries = different batches, read-out: NPFF1 % Efficacy Mean) stood at 17.7%; in data set [4] (R-SAT data, Table 2, multiple entries = different batches, read-out: NPFF2b % Efficacy Mean), 67.6%; in data set [5], 34%. The side effects observed result in data set [3] (10 mg/kg) is “demonstrated writhing behavior and appeared lethargic”. Further, the “side effects at doses less than 10 mg/kg” value in data set [3] is “not observed”. This molecule had a negative logarithm of the EC50 (pEC50) in data set [4] (NPFF2b pEC50 Mean, R-SAT data, Table 2, multiple entries = different batches) of 6.00.

In the case of `CC(C)C[C@H](NC(=O)[C@@H](N)Cc1ccccc1)C(=O)N[C@@H](Cc1ccccc1)C(=O)N[C@@H](CCC(N)=O)C(=O)N1CCC[C@H]1C(=O)N[C@@H](CCC(N)=O)C(=O)N[C@@H](CCCN=C(N)N)C(=O)N[C@@H](Cc1ccccc1)C(N)=O` [NPFF, Neuropeptide FF], the “barrel-rotation after ICV administration” value in data set [6] is “elicits barrel-rotation”. For the same molecule, the “rats demonstrating barrel rolling seizures” value is reported as 0 out of 3 in data set [7] (60 μg), 1 out of 2 in data set [7] (120 μg) and 3 out of 5 in data set [7] (150 μg).

Take `N=C(N)NN=Cc1ccc(Br)cc1F` [Compound 2018, 1-(4-Bromo-2-fluorobenzylideneamino)guanidine Hydrochloride]: the Emax was determined as 13% in data set [2] (setting [8]) and 53% in data set [4] (setting [9]). In data set [4] (R-SAT, Table 1), the EC50 is 3.16 µM.

On to `CCCOc1ccc(C=NNC(=N)N)cc1` [Compound 4006, 1-(4-n-Propoxybenzylideneamino)guanidine Hydrochloride], for which the Emax in data set [2] (setting [8]) came to 78%; in data set [4] (setting [9]), 53%. Also, the EC50 in data set [2] (R-SAT, Table 1) was 3.98 µM; in data set [4] (R-SAT, Table 1) it was 2 µM.

For the molecule `COc1ccc(C(F)(F)F)cc1C=NNC(=N)N` [Compound 2074, 1-[2-Methoxy-5-(trifluoromethyl)benzylideneamino]guanidine Hydrochloride], the Emax in data set [2] (setting [8]) was 19%; in data set [4] (setting [9]), 77%. Also, the EC50 was 10 µM in data set [2] (R-SAT, Table 1) and 2.51 µM in data set [4] (R-SAT, Table 1).

Turning to `COc1ccc(C=NNC(=N)N)cc1Br` [Compound 2014, 1-(3-Bromo-4-methoxybenzylideneamino)guanidine Hydrochloride], the results for the Emax in data set [2] (setting [8]) and in data set [4] (setting [9]) were 8% and 35%, respectively. Further, the EC50 in data set [4] (R-SAT, Table 1) is 2 µM.

With `N=C(N)NN=Cc1ccc(F)c(Cl)c1` [Compound 2013, 1-(3-Chloro-4-fluorobenzylideneamino)guanidine Hydrochloride], the Emax was determined as 4% in data set [2] (setting [8]) and 34% in data set [4] (setting [9]). The EC50 in data set [4] (R-SAT, Table 1) was 0.794 µM.

In the case of `COc1cccc(C=NNC(=N)N)c1OC` [Compound 4004, 1-(2,3-Dimethoxybenzylideneamino)guanidine Hydrochloride], the results for the Emax in data set [2] (setting [8]) and in data set [4] (setting [9]) were 15% and 49%, respectively. The EC50 in data set [4] (R-SAT, Table 1) is 10 µM.

For the molecule `N=C(N)NN=Cc1ccc(Cl)c(F)c1` [Compound 2030, 1-(4-Chloro-3-fluorobenzylideneamino)guanidine Hydrochloride], the Emax is 6% in data set [2] (setting [8]) and 62% in data set [4] (setting [9]). Further, in data set [4] (R-SAT, Table 1), the EC50 is 2.51 µM.

As to `CCCCCc1ccc(C=NNC(=N)N)cc1` [Compound 3022, 1-(4-n-pentylbenzylideneamino)guanidine Hydrochloride], the values for the Emax in data set [2] (setting [8]) and in data set [4] (setting [9]) were 13% and 55%, respectively. For the same molecule, the EC50 in data set [4] (R-SAT, Table 1) is 1.26 µM.

Regarding `N=C(N)NN=Cc1ccc(C(F)(F)F)cc1` [Compound 4002, 1-[(4-Trifluoromethyl)benzylideneamino]guanidine Hydrochloride], the Emax in data set [2] (setting [8]) came out at 20%; in data set [4] (setting [9]) it was 80%. The EC50 is 3.98 µM in data set [2] (R-SAT, Table 1) and 2.51 µM in data set [4] (R-SAT, Table 1).

For the molecule `COc1ccc(C=NNC(=N)N)c(OC)c1` [Compound 4003, 1-(2,4-Dimethoxybenzylideneamino)guanidine Hydrochloride], the Emax in data set [2] (setting [8]) and in data set [4] (setting [9]) was 41% in each case. The EC50 in data set [2] (R-SAT, Table 1) was 12.6 µM; in data set [4] (R-SAT, Table 1), 6.31 µM.

With `CCOc1ccc(C=NNC(=N)N)cc1OCC` [Compound 2026, 1-(3,4-Diethoxybenzylideneamino)guanidine], the Emax in data set [2] (setting [8]) is 9%; in data set [4] (setting [9]) it was 58%. Further, the EC50 in data set [4] (R-SAT, Table 1) was 7.94 µM.

As to `CC(=NNC(=N)N)c1ccc(Cl)c(Cl)c1` [Compound 3012, 1-[1-(3,4-Dichlorophenyl)ethylideneamino]guanidine Hydrochloride], the values for the Emax in data set [2] (setting [8]) and in data set [4] (setting [9]) were 0% and 63%, respectively. Besides, the EC50 in data set [4] (R-SAT, Table 1) was 0.251 µM.

Consider `CCN(CCO)c1ccc(C=NNC(=N)N)c(C)c1` [Compound 3036, 1-{4-[Ethyl-(2-hydroxyethyl)amino]-2-methylbenzylideneamino}guanidine Hydrochloride], for which the Emax in data set [2] (setting [8]) worked out at 84%; in data set [4] (setting [9]), 82%. The EC50 was 1.26 µM in data set [2] (R-SAT, Table 1) and 0.631 µM in data set [4] (R-SAT, Table 1).

Consider `COc1ccc(C(C)=NNC(=N)N)c(O)c1` (mixture of isomers) [Compound 3030, 1-[1-(2-Hydroxy-4-methoxyphenyl)ethylideneamino]guanidine Hydrochloride], for which the Emax stood at 7% in data set [2] (setting [8]) and 22% in data set [4] (setting [9]). The EC50 in data set [4] (R-SAT, Table 1) was 6.31 µM.

In the case of `CN(CCO)c1ccc(C=NNC(=N)N)cc1` [Compound 3041, 1-{4-[Methyl-(2-hydroxyethyl)amino]benzylideneamino}guanidine Hydrochloride], the Emax in data set [2] (setting [8]) was found to be 30%; in data set [4] (setting [9]) it was 53%. Moreover, the EC50 in data set [2] (R-SAT, Table 1) is 10 µM; in data set [4] (R-SAT, Table 1), 10 µM.

On to `CC(=NNC(=N)N)c1cccc(C(F)(F)F)c1` [Compound 3027, 1-{1-[3-(Trifluoromethyl)phenyl]ethylideneamino}guanidine Hydrochloride], for which the values for the Emax in data set [2] (setting [8]) and in data set [4] (setting [9]) were 5% and 63%, respectively. The EC50 in data set [4] (R-SAT, Table 1) was 1.26 µM.

`CC(=NNC(=N)N)c1cc(C(F)(F)F)cc(C(F)(F)F)c1` [Compound 3028, 1-{1-[3,5-Bis-(trifluoromethyl)phenyl]ethylideneamino}guanidine Hydrochloride]: the results for the Emax in data set [2] (setting [8]) and in data set [4] (setting [9]) were 9% and 23%, respectively. Also, in data set [4] (R-SAT, Table 1), the EC50 was 1.26 µM.
